Measurements taken from patent publication US8026219B2, “Antimicrobial linear peptides” (Universitat de Girona, priority 2006, dated 2011).
Starred links: 1 amine or outer side, 2 acyl side, 3 side chain; linkers in the order of their positions; H or OH if unused. Non-standard residues stand in square brackets, D forms with d. Residues, ends and D or L forms follow the SMILES beside them. No end group written: not given here. *: point of attachment. X1 = O=C([C@H](Cc1c[nH]c2ccccc12)N(Cc1ccccc1)[*:1])[*:2]; Tos = Cc1ccc(S(=O)(=O)*)cc1; Bz = O=C(c1ccccc1)*

Experiments:
[1] = test system: Erwinia amylovora PMV6076; experiment: Minimum inhibitory concentration (MIC), microbial growth by optical density; format: cell-based; conditions: 48 h incubation at 25° C., TSB medium
Procedure: (§1) Each experiment was performed twice.

[2] = test system: Pseudomonas syringae EPS94; experiment: as above; format: cell-based; conditions: 48 h incubation at 25° C., TSB medium
Procedure: as §1

[3] = test system: Xanthomonas vesicatori 2133-2; experiment: as above; conditions: 48 h incubation at 25° C., TSB medium
Procedure: All the bacteria were stored at a temperature of −80° C. in Luria-Bertani (LB) medium supplemented with 20% glycerine in volume/volume.
In all cases they were resuspended in sterile water to obtain a suspension adjusted to an absorbance of 0.2 to 60 nm, which approximately corresponds to 10^8 colony forming units.
To determine the minimum inhibitory concentration (MIC), the peptides were solubilized in milli-Q sterile water until a final concentration of 1000 μM and they were filtered through a 0.22 μm pore size filter.
Dilutions of the peptides of the invention were made to obtained solutions at the concentrations of 750, 500, 250, 200, 150, 125, 100, 75, 50 and 25 μM.
20 μl of each dilution were mixed with 20 μl of the suspension of the corresponding bacterial indicator, and 160 μl of the TSB (Trypticase Soy Broth) liquid medium until a total volume of 200 μl in each well of a microplate.
Two replicas were carried out for each strain, concentration and peptide under study.
The positive controls contained water instead of peptide, and the negative controls contained the peptides without the bacterial suspension.
The microbial growth was determined automatically by optical density at 600 nm using the Microbiology Analyser Bioscreen C (Labsystems)
The microplates were incubated at 25° C. for 48 hours with stirring for 20 seconds before measuring the absorbance every hour. Each experiment was performed twice.

[4] = test system: erythrocytes from fresh human blood; conditions: 5% erythrocytes, 1 h at 37° C., relative to 200 μM melittin; for % Haemolysis 50 μM: 50 μM peptide; for % Haemolysis 150 μM: 150 μM peptide; for % Haemolysis 250 μM: 250 μM peptide
Procedure: A description of the methodology used to determine the haemolytic activity is found in Oren et al, Biochemistry, 2000, 39, 6103-6114, and in Raguse et al., J. Am. Chem. Soc., 2002, 124, 12774-12785.
The haemolytic activity of the peptides of the invention was evaluated by determining the release of haemoglobin which is produced on placing in contact a solution of the peptides with a suspension of erythrocytes 5% by volume, from fresh human blood.
The blood was collected aseptically using a Vactainer® K2E system (Belliver, Great Britain) with EDTA and it was stored at 4° C. for a period lower than 2 hours.
The blood was centrifuged at 6000 g for 5 minutes to separate the erythrocytes. There were washed three times with TRIS buffer (10 mM TRIS, 150 mM NaCl, pH 7.2) and they were resuspended in TRIS buffer until obtaining a suspension which contained 10% by volume of erythrocytes.
The peptides were solubilized in TRIS buffer until a final concentration of 100, 300 and 500 μM
The replicas were used for each peptide and concentration.
65 μl of 10% erythrocyte suspension was mixed with 65 μl of the peptide solution in each well of a 96-well plate (Micro-Amp®, Applied Biosystems, USA) (5% by volume of erythrocytes) and the mixture was incubated for 1 h at 37° C. under stirring. In this way, the erythrocyte suspensions were subjected to peptide concentrations of 50, 150 and 250 μM.
Next, the plates were centrifuged at 3500 g during 10 minutes and aliquots were transferred of 80 μl of supernatant to microplates with 100 wells (Bioscreen), which were diluted with 80 μl of milli-Q water.
The degree of haemolysis was determined from the absorbance at 540 nm with a Bioscreen plate reader.
The complete positive haemolysis control was determined in a TRIS buffer solution which contained 200 μM melittin (Sigma-Aldrich, Spain)
The percentage of haemolysis (H) was determined using the following equation: H=100×[Op−Ob)/(Om−Ob)]
Where OP as the optical density measured for a determined peptide concentration, Ob was the optical density of the buffer solution, and Om was the optical density for the positive control with melittin.

Molecule | range of concentrations including the MIC, E. amylovora [1] [µM] | range of concentrations including the MIC, P. syringae [2] [µM] | range of concentrations including the MIC, X. vesicatoria [3] [µM] | % Haemolysis 50 μM [4] [%] | % Haemolysis 150 μM [4] [%] | % Haemolysis 250 μM [4] [%]
CC[C@H](C)[C@H](NC(=O)[C@H](CCCCN)NC(=O)[C@H](CCCCN)NC(=O)[C@H](Cc1ccccc1)NC(=O)[C@H](CC(C)C)NC(=O)[C@H](CCCCN)NC(=O)[C@H](Cc1c[nH]c2ccccc12)NCc1ccccc1)C(=O)N[C@@H](CC(C)C)C(=O)N[C@@H](CCCCN)C(=O)N[C@H](C(=O)N[C@@H](CC(C)C)C(N)=O)C(C)C [BP011] (H-[X1]KLFKKILKVL-NH2) | 5 to 7.5 | 5 to 7.5 | 2.5 to 5 | 81 | 96 | 100
CC[C@H](C)[C@H](NC(=O)[C@H](CCCCN)NC(=O)[C@H](CCCCN)NC(=O)[C@H](Cc1ccccc1)NC(=O)[C@H](CC(C)C)NC(=O)[C@H](CCCCN)NC(=O)[C@@H](N)CCCCN)C(=O)N[C@@H](CC(C)C)C(=O)N[C@@H](CCCCN)C(=O)N[C@@H](Cc1c[nH]c2ccccc12)C(=O)N[C@@H](CC(C)C)C(N)=O [BP017] | >7.5 | 5 to 7.5 | 5 to 7.5 | – | – | –
CC[C@H](C)[C@H](NC(=O)[C@H](CCCCN)NC(=O)[C@H](CCCCN)NC(=O)[C@H](Cc1ccccc1)NC(=O)[C@H](CC(C)C)NC(=O)[C@H](CCCCN)NC(=O)[C@H](CCCCN)NS(=O)(=O)c1ccc(C)cc1)C(=O)N[C@@H](CC(C)C)C(=O)N[C@@H](CCCCN)C(=O)N[C@H](C(=O)N[C@@H](CC(C)C)C(N)=O)C(C)C [BP030] | 5 to 7.5 | 5 to 7.5 | 5 to 7.5 | 25 | 70 | 80
CC[C@H](C)[C@H](NC(=O)[C@H](CCCCN)NC(=O)[C@H](CCCCN)NC(=O)[C@H](Cc1ccccc1)NC(=O)[C@H](CC(C)C)NC(=O)[C@H](CCCCN)NC(=O)[C@H](CCCCN)NC(=O)c1ccccc1)C(=O)N[C@@H](CC(C)C)C(=O)N[C@@H](CCCCN)C(=O)N[C@H](C(=O)N[C@@H](CC(C)C)C(N)=O)C(C)C [BP031] | 2.5 to 5 | 5 to 7.5 | <2.5 | 34 | 71 | 76
CC[C@H](C)[C@H](NC(=O)[C@H](CCCCN)NC(=O)[C@H](CCCCN)NC(=O)[C@H](Cc1ccccc1)NC(=O)[C@H](CC(C)C)NC(=O)[C@H](CCCCN)NC(=O)[C@@H](N)CCCCN)C(=O)N[C@@H](CC(C)C)C(=O)N[C@@H](CCCCN)C(=O)N[C@@H](Cc1c[nH]c2ccccc12)C(=O)N[C@@H](CC(C)C)C(N)=O [BP052] | 2.5 to 5 | 5 | 2.5 to 5 | 51 | 84 | 79
CC[C@H](C)[C@H](NC(=O)[C@H](CCCCN)NC(=O)[C@H](CCCCN)NC(=O)[C@H](Cc1ccccc1)NC(=O)[C@H](CC(C)C)NC(=O)[C@H](CCCCN)NC(=O)[C@H](CCCCN)NC(C)=O)C(=O)N[C@@H](CC(C)C)C(=O)N[C@@H](CCCCN)C(=O)N[C@@H](Cc1c[nH]c2ccccc12)C(=O)N[C@@H](CC(C)C)C(N)=O [BP053] | >7.5 | 5 to 7.5 | 2.5 to 5 | 60 | 82 | 85
CC[C@H](C)[C@H](NC(=O)[C@H](CCCCN)NC(=O)[C@H](CCCCN)NC(=O)[C@H](Cc1ccccc1)NC(=O)[C@H](CC(C)C)NC(=O)[C@H](CCCCN)NC(=O)[C@H](CCCCN)NS(=O)(=O)c1ccc(C)cc1)C(=O)N[C@@H](CC(C)C)C(=O)N[C@@H](CCCCN)C(=O)N[C@@H](Cc1c[nH]c2ccccc12)C(=O)N[C@@H](CC(C)C)C(N)=O [BP054] (Tos-KKLFKKILKWL-NH2) | >7.5 | 5 to 7.5 | <2.5 | – | – | –
CC[C@H](C)[C@H](NC(=O)[C@H](CCCCN)NC(=O)[C@H](CCCCN)NC(=O)[C@H](Cc1ccccc1)NC(=O)[C@H](CC(C)C)NC(=O)[C@H](CCCCN)NC(=O)[C@H](CCCCN)NC(=O)c1ccccc1)C(=O)N[C@@H](CC(C)C)C(=O)N[C@@H](CCCCN)C(=O)N[C@@H](Cc1c[nH]c2ccccc12)C(=O)N[C@@H](CC(C)C)C(N)=O [BP055] (Bz-KKLFKKILKWL-NH2) | >7.5 | >7.5 | <2.5 | – | – | –
CC[C@H](C)[C@H](NC(=O)[C@H](CCCCN)NC(=O)[C@H](CCCCN)NC(=O)[C@H](Cc1ccccc1)NC(=O)[C@H](CC(C)C)NC(=O)[C@H](CCCCN)NC(=O)[C@H](CC(C)C)NS(=O)(=O)c1ccc(C)cc1)C(=O)N[C@@H](CC(C)C)C(=O)N[C@@H](CCCCN)C(=O)N[C@@H](Cc1c[nH]c2ccccc12)C(=O)N[C@@H](CC(C)C)C(N)=O [BP059] (Tos-LKLFKKILKWL-NH2) | >7.5 | >7.5 | 2.5 | – | – | –
CC[C@H](C)[C@H](NC(=O)[C@H](CCCCN)NC(=O)[C@H](CCCCN)NC(=O)[C@H](Cc1ccccc1)NC(=O)[C@H](CC(C)C)NC(=O)[C@H](CCCCN)NC(=O)[C@H](CCCCN)NS(=O)(=O)c1ccc(C)cc1)C(=O)N[C@@H](CC(C)C)C(=O)N[C@@H](CCCCN)C(=O)N[C@@H](Cc1ccccc1)C(=O)N[C@@H](CC(C)C)C(N)=O [BP078] | 5 to 7.5 | 5 to 7.5 | <2.5 | 40 | 85 | 95
CC[C@H](C)[C@H](NC(=O)[C@H](CCCCN)NC(=O)[C@H](CCCCN)NC(=O)[C@H](Cc1ccccc1)NC(=O)[C@H](CC(C)C)NC(=O)[C@H](CCCCN)NC(=O)[C@H](Cc1ccc(O)cc1)NC(C)=O)C(=O)N[C@@H](CC(C)C)C(=O)N[C@@H](CCCCN)C(=O)N[C@@H](Cc1ccc(O)cc1)C(=O)N[C@@H](CC(C)C)C(N)=O [BP096] | – | – | – | 47 | 86 | 85
CC[C@H](C)[C@H](NC(=O)[C@H](CCCCN)NC(=O)[C@H](CCCCN)NC(=O)[C@H](Cc1ccccc1)NC(=O)[C@H](CC(C)C)NC(=O)[C@H](CCCCN)NC(=O)[C@H](CCCCN)NC(C)=O)C(=O)N[C@@H](CC(C)C)C(=O)N[C@@H](CCCCN)C(=O)N[C@@H](CCCCN)C(=O)N[C@@H](CC(C)C)C(N)=O [BP124] | – | – | – | 1 | 5 | 23
Ac-KKLFKKILKVL-NH2 [BP029] | 5 to 7.5 | 5 to 7.5 | 7.5 | – | – | –
Ac-YKLFKKILKKL-NH2 [BP120] | >7.5 | 5 to 7.5 | 5 to 7.5 | – | – | –
LKLFKKILKKL-NH2 [BP128] | – | – | – | 2 | 31 | 66
YKLFKKILKKL-NH2 [BP119] | – | – | – | 4 | 19 | 45
